In ChEMBL document CHEMBL4602678, “Identification of Holrhizins E-Q Reveals the Diversity of Nonribosomal Lipopeptides in Paraburkholderia rhizoxinica” (J Nat Prod, 2020):
Where a SMILES comes first, the peptide text is derived from it. The star is where a group is joined. Octanoyl = CCCCCCCC(=O)*; Hexanoyl = CCCCCC(=O)*

What was measured:
Aspergillus fumigatus = test: Antimicrobial activity against Aspergillus fumigatus incubated for 24 hrs by Kirby-Bauer disk diffusion method; assay type: functional
HCT-116 = test: Cytotoxicity against human HCT116 cells incubated for 2 days by MTT assay; assay type: functional, cell-based; details: HCT-116, 48 h
[1] = Cytotoxicity against human Kasumi cells incubated for 2 days by MTT assay; assay type: functional, cell-based; details: 48 h
A549 = test: Cytotoxicity against human A549 cells incubated for 2 days by MTT assay; assay type: functional, cell-based; details: A549, 48 h
SGC-7901 = test: Cytotoxicity against human SGC7901 cells incubated for 2 days by MTT assay; assay type: functional, cell-based; details: SGC-7901, 48 h
MDA-MB-231 = test: Cytotoxicity against human MDA-MB-231 cells incubated for 2 days by MTT assay; assay type: functional, cell-based; details: MDA-MB-231, 48 h
K562 = test: Cytotoxicity against human K562 cells incubated for 2 days by MTT assay; assay type: functional, cell-based; details: K562, 48 h
Rhizoctonia solani = test: Antimicrobial activity against Rhizoctonia solani incubated for 24 hrs by Kirby-Bauer disk diffusion method; assay type: functional
HepG2 = test: Cytotoxicity against human HepG2 cells incubated for 2 days by MTT assay; assay type: functional, cell-based; details: HepG2, 48 h
MCF7 = test: Cytotoxicity against human MCF7 cells incubated for 2 days by MTT assay; assay type: functional, cell-based; details: MCF7, 48 h
Pseudomonas aeruginosa = test: Antimicrobial activity against Pseudomonas aeruginosa […] ATCC 27853 incubated for 24 hrs by Kirby-Bauer disk diffusion method; assay type: functional
Bacillus subtilis = test: Antimicrobial activity against Bacillus subtilis ATCC 6633 incubated for 24 hrs by Kirby-Bauer disk diffusion method; assay type: functional; details: ATCC 6633, 24 h
Staphylococcus aureus = test: Antimicrobial activity against Staphylococcus aureus ATCC 29213 incubated for 24 hrs by Kirby-Bauer disk diffusion method; assay type: functional; details: ATCC 29213, 24 h
Escherichia coli = test: Antimicrobial activity against Escherichia coli ATCC 35218 incubated for 24 hrs by Kirby-Bauer disk diffusion method; assay type: functional; details: ATCC 35218, 24 h
Candida albicans = test: Antimicrobial activity against Candida albicans incubated for 24 hrs by Kirby-Bauer disk diffusion method; assay type: functional
[2] = Cytotoxicity against human 2B cells incubated for 2 days by MTT assay; assay type: cell-based; details: 48 h

| SMILES | MIC (Aspergillus fumigatus) | IC50 (HCT-116) | IC50 [1] | IC50 (A549) | IC50 (SGC-7901) | IC50 (MDA-MB-231) | IC50 (K562) | MIC (Rhizoctonia solani) | IC50 (HepG2) | IC50 (MCF7) | MIC (Pseudomonas aeruginosa) | MIC (Bacillus subtilis) | MIC (Staphylococcus aureus) | MIC (Escherichia coli) | MIC (Candida albicans) | IC50 [2] |
| --- | --- | --- | --- | --- | --- | --- | --- | --- | --- | --- | --- | --- | --- | --- | --- | --- |
| CCCCCCCC(=O)N[C@H](C(=O)N[C@@H](Cc1ccccc1)C(=O)N[C@@H](CCC(=O)O)C(=O)N[C@@H](CC(C)C)C(=O)N[C@@H](C)C(=O)N[C@@H](CC(C)C)C(=O)O)C(C)C (Octanoyl-VFELAL-OH) | > 100 µM | > 40 µM | > 40 µM | > 40 µM | > 40 µM | > 40 µM | > 40 µM | > 100 µM | > 40 µM | > 40 µM | > 100 µM | > 100 µM | > 100 µM | > 100 µM | > 100 µM | > 40 µM |
| CCCCCCCC(=O)N[C@H](C(=O)N[C@@H](Cc1ccccc1)C(=O)N[C@@H](CCC(=O)O)C(=O)N[C@H](C(=O)N[C@@H](C)C(=O)N[C@H](C(=O)O)[C@@H](C)CC)[C@@H](C)CC)C(C)C (Octanoyl-VFEIAI-OH) | > 100 µM | > 40 µM | > 40 µM | > 40 µM | > 40 µM | > 40 µM | > 40 µM | > 100 µM | > 40 µM | > 40 µM | > 100 µM | > 100 µM | > 100 µM | > 100 µM | > 100 µM | > 40 µM |
| CCCCCC(=O)N[C@H](C(=O)N[C@@H](Cc1ccccc1)C(=O)N[C@@H](CCC(=O)O)C(=O)N[C@@H](CC(C)C)C(=O)N[C@@H](C)C(=O)N[C@@H](CC(C)C)C(=O)O)C(C)C (Hexanoyl-VFELAL-OH) | > 100 µM | > 40 µM | > 40 µM | > 40 µM | > 40 µM | > 40 µM | > 40 µM | > 100 µM | > 40 µM | > 40 µM | > 100 µM | > 100 µM | > 100 µM | > 100 µM | > 100 µM | > 40 µM |
| CCCCCCCC(=O)N[C@H](C(=O)N[C@@H](Cc1ccccc1)C(=O)N[C@@H](CCC(=O)O)C(=O)N[C@@H](CC(C)C)C(=O)O)C(C)C (Octanoyl-VFEL-OH) | > 100 µM | > 40 µM | > 40 µM | > 40 µM | > 40 µM | > 40 µM | > 40 µM | > 100 µM | > 40 µM | > 40 µM | > 100 µM | > 100 µM | > 100 µM | > 100 µM | > 100 µM | > 40 µM |
| CCCCCC(=O)N[C@H](C(=O)N[C@@H](Cc1ccccc1)C(=O)O)C(C)C (Hexanoyl-Val-Phe-OH) | > 100 µM | > 40 µM | > 40 µM | > 40 µM | > 40 µM | > 40 µM | > 40 µM | > 100 µM | > 40 µM | > 40 µM | > 100 µM | > 100 µM | > 100 µM | > 100 µM | > 100 µM | > 40 µM |
| CCCCCCCC(=O)N[C@H](C(=O)N[C@@H](Cc1ccccc1)C(=O)N[C@@H](CCC(=O)O)C(=O)N[C@H](C(=O)NCC(=O)N[C@H](C(=O)O)[C@@H](C)CC)[C@@H](C)CC)C(C)C (Octanoyl-VFEIGI-OH) | > 100 µM | > 40 µM | > 40 µM | > 40 µM | > 40 µM | > 40 µM | > 40 µM | > 100 µM | > 40 µM | > 40 µM | > 100 µM | > 100 µM | > 100 µM | > 100 µM | > 100 µM | > 40 µM |
| CCCCCC(=O)N[C@H](C(=O)N[C@@H](Cc1ccccc1)C(=O)N[C@@H](CCC(=O)O)C(=O)N[C@H](C(=O)N[C@@H](C)C(=O)N[C@H](C(=O)O)[C@@H](C)CC)[C@@H](C)CC)C(C)C (Hexanoyl-VFEIAI-OH) | > 100 µM | > 40 µM | > 40 µM | > 40 µM | > 40 µM | > 40 µM | > 40 µM | > 100 µM | > 40 µM | > 40 µM | > 100 µM | > 100 µM | > 100 µM | > 100 µM | > 100 µM | > 40 µM |
